The target in the assay is T1, β-catenin (Homo sapiens, UniProt P35222).
T1 sequence (P35222 1-781): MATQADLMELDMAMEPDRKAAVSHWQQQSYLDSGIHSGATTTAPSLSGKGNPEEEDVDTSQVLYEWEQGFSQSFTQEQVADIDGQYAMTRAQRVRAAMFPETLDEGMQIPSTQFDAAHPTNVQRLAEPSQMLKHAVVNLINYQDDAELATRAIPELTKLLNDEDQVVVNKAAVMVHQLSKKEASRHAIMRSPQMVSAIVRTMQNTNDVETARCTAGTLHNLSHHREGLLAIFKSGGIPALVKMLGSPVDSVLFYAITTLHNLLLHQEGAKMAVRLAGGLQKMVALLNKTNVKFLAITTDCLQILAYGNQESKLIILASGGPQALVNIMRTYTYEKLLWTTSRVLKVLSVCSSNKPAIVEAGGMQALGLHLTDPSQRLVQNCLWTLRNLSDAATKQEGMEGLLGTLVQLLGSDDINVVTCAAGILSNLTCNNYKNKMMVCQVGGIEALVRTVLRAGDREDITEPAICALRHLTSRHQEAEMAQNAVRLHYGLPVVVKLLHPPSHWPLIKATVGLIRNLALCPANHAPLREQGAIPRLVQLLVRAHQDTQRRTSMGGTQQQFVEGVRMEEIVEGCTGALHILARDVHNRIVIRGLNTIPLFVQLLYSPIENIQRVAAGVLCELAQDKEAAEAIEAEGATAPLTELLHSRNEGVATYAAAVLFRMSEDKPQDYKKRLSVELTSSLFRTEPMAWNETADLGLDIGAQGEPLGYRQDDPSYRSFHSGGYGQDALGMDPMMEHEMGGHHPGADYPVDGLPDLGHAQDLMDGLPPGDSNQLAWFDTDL
The assay is described as follows: KD50 measurement using competitive fluorescence polarization (FP) with labelled TCF4. The settings on record: fluorescence polarization, β-catenin; for Kd: read-out: β-Cat FP KD. In kind it is binding. From the text:
Fluorescence polarization (FP) is another method used to analyze protein-ligand interactions. This methodology measures the change in fluorescence light emitted by a labelled compound free vs. conjugated to another compound in solution. Upon binding of the fluorescent molecule to a complex, polarization increases because of limited rotation of the fluorescent tracer. Competitive FP is often utilized in drug screens as it is formatted for high throughput screens in a plate format. This immunoassay is performed by introducing a non-conjugated drug to compete for binding to the labelled competitor-ligand complex, leading to a reduction in polarization. TCF4 protein is utilized for the competitive assay as (1) this protein influences the full activation of the Wnt pathway and (2) shares homology with the β-catenin inhibitors. Exemplary methodology is described in Example 13. Data were analyzed and plotted in Microsoft Excel (Microsoft, Redmond, WA).
5 nM of labelled TCF4 protein was added to solution of 100 nM of β-catenin and incubated at room temperature in 96-well plates (Greiner 96 Flat transparent plates, Millipore Sigma, Carlsbad CA). Varying concentrations of β-catenin inhibitor candidate (SEQ ID NO: 404) were then added in a series of serial dilutions from 10 nM to 30 uM of inhibitor in different wells of the plate. The fluorescence polarization was read by Infinite M1000 (Tecan, Baldwin Park CA) at excitation wavelength of 470 nm and measured at emission wavelength of 520 nm. […] The experiments were performed three times and data were analyzed and plotted in Microsoft Excel (Microsoft, Redmond, WA).
For orientation: Polarisation of emitted light reports the rotation of a fluorescent probe.

*1 amine or outer side, *2 acyl side, *3 side chain or, on linkers, in order; H or OH if unused. Where a SMILES comes first, the peptide text is derived from it. [ ]: non-standard residue; d: D form. ξ: configuration not given here. X4 = CC[C@@H](C)C(N[*:1])C(=O)[*:2]; ξW = NC(Cc1c[nH]c2ccccc12)C(=O)O; ξL = CC(C)CC(N)C(=O)O; ξC = NC(CS)C(=O)O; βAla = NCCC(=O)O A value given as a limit tells only on which side of the number the result lay.

In the case of `CC[C@H](C)[C@@H]1NC(=O)[C@H](CC(C)C)NC(=O)[C@H](Cc2ccccc2)NC(=O)[C@H](Cc2c[nH]c3ccccc23)NC(=O)[C@@H](N)CCCCNC(=O)CC[C@@H](C(=O)NCC(=O)O)NC(=O)[C@H](Cc2ccccc2)NC(=O)[C@H](CO)NC1=O` [compound 227] (HELM PEPTIDE1{K.W.F.L.I.S.F.E.G}$PEPTIDE1,PEPTIDE1,1:R3-8:R3$$$V2.0), the “β-Cat FP Hill slope” value is 0.5 and the Kd (commonly the free concentration of one partner at which half of the binding sites on the other are occupied at equilibrium, for simple one-to-one binding) lay within 1 to 10 µM. The matching figures for `CC[C@H](C)[C@@H]1NC(=O)[C@H](CC(C)C)NC(=O)[C@H](Cc2ccccc2)NC(=O)[C@H](Cc2c[nH]c3ccccc23)NC(=O)[C@@H](N)CCCCNC(=O)CC[C@@H](C(=O)N[C@@H](Cc2c[nH]c3ccccc23)C(=O)NCC(=O)O)NC(=O)[C@H](CO)NC1=O` [compound 228] (HELM PEPTIDE1{K.W.F.L.I.S.E.W.G}$PEPTIDE1,PEPTIDE1,1:R3-7:R3$$$V2.0): 0.2 and above 30 µM. Turning to `CC[C@H](C)[C@@H]1NC(=O)[C@H](CC(C)C)NC(=O)[C@H](Cc2ccccc2)NC(=O)[C@H](Cc2c[nH]c3ccccc23)NC(=O)[C@@H](N)CCCCNC(=O)CC[C@@H](C(=O)N[C@@H](Cc2ccccc2)C(=O)N[C@@H](Cc2c[nH]c3ccccc23)C(=O)NCC(=O)O)NC1=O` [compound 229] (HELM PEPTIDE1{K.W.F.L.I.E.F.W.G}$PEPTIDE1,PEPTIDE1,1:R3-6:R3$$$V2.0), the “β-Cat FP Hill slope” value was found to be 0.43 and the Kd is 1 to 10 µM. On to `CC[C@H](C)[C@@H]1NC(=O)[C@H](CC(C)C)NC(=O)[C@@H](NC(=O)[C@H](Cc2c[nH]c3ccccc23)NC(=O)[C@@H](N)CCSC)CCCCNC(=O)CC[C@@H](C(=O)N[C@@H](Cc2ccccc2)C(=O)N[C@@H](Cc2c[nH]c3ccccc23)C(=O)NCC(=O)O)NC1=O` [compound 230] (HELM PEPTIDE1{M.W.K.L.I.E.F.W.G}$PEPTIDE1,PEPTIDE1,3:R3-6:R3$$$V2.0), for which the “β-Cat FP Hill slope” value is listed as 0.77 and the Kd is below 0.4 µM.

With `CC(C)C[C@@H]1NC(=O)[C@H](Cc2ccccc2)NC(=O)[C@H](Cc2c[nH]c3ccccc23)NC(=O)[C@@H](N)CCCCNC(=O)CC[C@@H](C(=O)N[C@@H](CO)C(=O)N[C@@H](Cc2ccccc2)C(=O)N[C@@H](Cc2c[nH]c3ccccc23)C(=O)NCC(=O)O)NC1=O` [compound 231] (HELM PEPTIDE1{K.W.F.L.E.S.F.W.G}$PEPTIDE1,PEPTIDE1,1:R3-5:R3$$$V2.0), the “β-Cat FP Hill slope” value turned out to be 0.7 and the dissociation constant (Kd) lay in the range of 1 to 10 µM. The matching figures for `CC[C@H](C)[C@H](NC(=O)[C@H](CC(C)C)NC(=O)[C@@H]1CCC(=O)NCCCC[C@H](N)C(=O)N[C@@H](Cc2c[nH]c3ccccc23)C(=O)N1)C(=O)N[C@@H](CO)C(=O)N[C@@H](Cc1ccccc1)C(=O)N[C@@H](Cc1c[nH]c2ccccc12)C(=O)NCC(=O)O` [compound 232] (HELM PEPTIDE1{K.W.E.L.I.S.F.W.G}$PEPTIDE1,PEPTIDE1,1:R3-3:R3$$$V2.0): 2.73 and 1 to 10 µM. Take `CC[C@H](C)[C@@H]1NC(=O)[C@H](CC(C)C)NC(=O)[C@H](Cc2ccccc2)NC(=O)[C@H](Cc2c[nH]c3ccccc23)NC(=O)[C@@H](N)CC(=O)NCCCC[C@@H](C(=O)O)NC(=O)[C@H](Cc2c[nH]c3ccccc23)NC(=O)[C@H](C)NC(=O)[C@H](CS)NC1=O` [compound 233] (HELM PEPTIDE1{D.W.F.L.I.C.A.W.K}$PEPTIDE1,PEPTIDE1,1:R3-9:R3$$$V2.0): the “β-Cat FP Hill slope” value was found to be 0.74 and the Kd is below 0.4 µM.

As for `CC[C@@H](C)C(NC(=O)C(CC(C)C)NC(=O)[C@H](Cc1ccccc1)NC(=O)C(Cc1c[nH]c2ccccc12)NC(=O)[C@H](CCCCN)NC(C)=O)C(=O)NC(CS)C(=O)N[C@@H](C)C(=O)NC(Cc1c[nH]c2ccccc12)C(=O)NCCC(=O)O` (stereo partly drawn) [compound 235] (Ac-K[ξW]F[ξL][X4][ξC]A[ξW][βAla]-OH), the Kd is above 30 µM. Turning to `CC[C@H](C)[C@H](NC(=O)[C@@H](N)CC(C)C)C(=O)N[C@@H](CO)C(=O)N[C@@H](Cc1ccccc1)C(=O)N[C@@H](Cc1c[nH]c2ccccc12)C(=O)NCC(=O)O` [compound 237] (H-LISFWG-OH), the “β-Cat FP Hill slope” value amounted to 0.72 and the Kd was above 30 µM. With `CC[C@H](C)[C@H](NC(=O)[C@H](CC(C)C)NC(C)=O)C(=O)N[C@@H](CO)C(=O)N[C@@H](Cc1ccccc1)C(=O)N[C@@H](Cc1c[nH]c2ccccc12)C(=O)NCC(=O)O` [compound 238] (Ac-LISFWG-OH), the “β-Cat FP Hill slope” value was determined as 0.7 and the Kd fell in the range of 10 to 30 µM. As to `CC[C@H](C)[C@H](NC(=O)[C@H](CC(C)C)NC(=O)[C@H](Cc1ccccc1)NC(C)=O)C(=O)N[C@@H](CO)C(=O)N[C@@H](Cc1ccccc1)C(=O)N[C@@H](Cc1c[nH]c2ccccc12)C(=O)NCC(=O)O` [compound 239] (Ac-FLISFWG-OH), the “β-Cat FP Hill slope” value is listed as 0.7 and the Kd lay within 1 to 10 µM. On to `CC[C@H](C)[C@H](NC(=O)[C@H](CC(C)C)NC(=O)[C@@H](NC(=O)[C@H](Cc1c[nH]c2ccccc12)NC(=O)[C@H](CCSC)NC(C)=O)[C@@H](C)CC)C(=O)N[C@@H](CO)C(=O)N[C@@H](Cc1ccccc1)C(=O)N[C@@H](Cc1c[nH]c2ccccc12)C(=O)NCCCC(=O)O` [compound 240] (HELM PEPTIDE1{[ac].M.W.I.L.I.S.F.W.[O=C(O)CCCN[*:1]]}$$$$V2.0), for which the “β-Cat FP Hill slope” value turned out to be 1.44 and the equilibrium dissociation constant (Kd) was below 0.4 µM. `CC[C@H](C)[C@H](NC(=O)[C@H](CC(C)C)NC(=O)[C@@H](N)Cc1ccccc1)C(=O)N[C@@H](CO)C(=O)N[C@@H](Cc1ccccc1)C(=O)N[C@@H](Cc1c[nH]c2ccccc12)C(=O)NCC(=O)O` [compound 241] (H-FLISFWG-OH): the “β-Cat FP Hill slope” value is reported as 0.7 and the Kd fell in the range of 1 to 10 µM. The matching figures for `CC[C@@H]1NC(=O)[C@H]([C@@H](C)CC)NC(=O)[C@H](CC(C)C)NC(=O)[C@H](Cc2ccccc2)NC(=O)[C@H](Cc2c[nH]c3ccccc23)NC(=O)[C@@H](NC(C)=O)CCCCNC(=O)C[C@@H](C(=O)O)NC(=O)[C@H](Cc2c[nH]c3ccccc23)NC(=O)[C@H](C)NC1=O` [compound 243] (HELM PEPTIDE1{[ac].K.W.F.L.I.[Abu].A.W.D}$PEPTIDE1,PEPTIDE1,2:R3-10:R3$$$V2.0): 0.7 and 10 to 30 µM.

With `CC[C@@H]1NC(=O)[C@H]([C@@H](C)CC)NC(=O)[C@H](CC(C)C)NC(=O)[C@H](Cc2ccccc2)NC(=O)[C@H](Cc2c[nH]c3ccccc23)NC(=O)[C@@H](N)CCCCNC(=O)C[C@@H](C(=O)O)NC(=O)[C@H](Cc2c[nH]c3ccccc23)NC(=O)[C@H](C)NC1=O` [compound 244] (HELM PEPTIDE1{K.W.F.L.I.[Abu].A.W.D}$PEPTIDE1,PEPTIDE1,1:R3-9:R3$$$V2.0), the “β-Cat FP Hill slope” value is 1.9 and the Kd was in the range of 0.4 to 1 µM. Take `CC[C@H](C)[C@@H]1NC(=O)[C@H](CC(C)C)NC(=O)[C@H](Cc2ccccc2)NC(=O)[C@H](Cc2c[nH]c3ccccc23)NC(=O)CCCCCNC(=O)C[C@@H](C(=O)O)NC(=O)[C@H](Cc2c[nH]c3ccccc23)NC(=O)[C@H](C)NC(=O)[C@H](CS)NC1=O` [compound 245] (HELM PEPTIDE1{[O=C(CCCCCN[*:1])[*:2]].W.F.L.I.C.A.W.D}$PEPTIDE1,PEPTIDE1,1:R1-9:R3$$$V2.0): the “β-Cat FP Hill slope” value is listed as 1.28 and the Kd is below 0.4 µM. With `CC[C@@H]1NC(=O)[C@H]([C@@H](C)CC)NC(=O)[C@H](CC(C)C)NC(=O)[C@H](Cc2ccccc2)NC(=O)[C@H](Cc2c[nH]c3ccccc23)NC(=O)CCCCCNC(=O)C[C@@H](C(=O)O)NC(=O)[C@H](Cc2c[nH]c3ccccc23)NC(=O)[C@H](C)NC1=O` [compound 246] (HELM PEPTIDE1{[O=C(CCCCCN[*:1])[*:2]].W.F.L.I.[Abu].A.W.D}$PEPTIDE1,PEPTIDE1,1:R1-9:R3$$$V2.0), the “β-Cat FP Hill slope” value amounted to 3 and the Kd was below 0.4 µM.

The values above are taken from US12441768B2, “Compositions and methods for treating endometriosis” (EndoMet Biosciences, Inc., priority 2018, dated 2025).
